According to patent US20230248036A1, “FLAVOUR ADDITIVES” (MARS, INCORPORATED, priority 2012, published 2023):

Tests used:
[1] = test system: feline umami receptor; assay: Ligand binding of the feline umami receptor; conditions: natural ligands of the human T1R1/T1R3 receptor
Source text: As mentioned above, in addition to in silico modelling of the feline umami receptor, sequence alignments of the human, cat and dog receptors have been performed. […] Therefore, due to these significant differences, it would not be expected by the skilled person that compounds that are known to bind to the human receptor would affect the umami receptor of other animals as described herein.

[2] = test system: T1R1/T1R3 receptor (umami receptor); assay: In vitro screening for binding and activation of the umami receptor; assay type: biochemical; conditions: in vitro assays using a non-human umami receptor (with in silico modelling); screening in the presence of 0.2 mM IMP
Protocol: In vitro screening was carried out in order to establish which first amino acids bind and activate the umami receptor.
In vitro screening was carried out in order to establish which second amino acids bind and activate the umami receptor.

| Structure (SMILES) | Binding to the feline umami receptor [1] | Ability to bind to and activate the umami receptor [2] |
| --- | --- | --- |
| N[C@@H](CCC(=O)O)C(=O)O [glutamate] | does not bind |  |
| NCC(=O)O [glycine] |  | able to bind to and activate |
| N[C@@H](Cc1c[nH]cn1)C(=O)O [histidine] |  | able to bind to and activate |
| C[C@@H](O)[C@H](N)C(=O)O [threonine] |  | do not activate |
